# Reference: ChEMBL document CHEMBL2429768, “Eco-friendly synthesis and antimicrobial activities of substituted-5-(1H-indol-3-yl)methylene)-2,2-dimethyl-1,3-dioxane-4,6-dione derivatives” (2013)
# Experiments:
# Assay type in all cases: functional
# [1] = test system: Aspergillus niger; test: Antifungal activity against Aspergillus niger at 50 ug/ml after 72 hrs by agar well diffusion method; settings: read-out: DIZ
# [2] = test system: Fusarium oxysporum; test: Antifungal activity against Fusarium oxysporum at 500 ug/ml after 72 hrs by agar well diffusion method; settings: read-out: DIZ
# [3] = test system: Fusarium oxysporum; test: Antifungal activity against Fusarium oxysporum at 300 ug/ml after 72 hrs by agar well diffusion method; settings: read-out: DIZ
# [4] = test system: Fusarium oxysporum; test: Antifungal activity against Fusarium oxysporum at 200 ug/ml after 72 hrs by agar well diffusion method; settings: read-out: DIZ
# [5] = test system: Fusarium oxysporum; test: Antifungal activity against Fusarium oxysporum at 100 ug/ml after 72 hrs by agar well diffusion method; settings: read-out: DIZ
# [6] = test system: Fusarium oxysporum; test: Antifungal activity against Fusarium oxysporum at 50 ug/ml after 72 hrs by agar well diffusion method; settings: read-out: DIZ
# [7] = test system: Rhizoctonia solani; test: Antifungal activity against Rhizoctonia solani at 500 ug/ml after 72 hrs by agar well diffusion method; settings: read-out: DIZ
# [8] = test system: Rhizoctonia solani; test: Antifungal activity against Rhizoctonia solani at 300 ug/ml after 72 hrs by agar well diffusion method; settings: read-out: DIZ
# [9] = test system: Rhizoctonia solani; test: Antifungal activity against Rhizoctonia solani at 200 ug/ml after 72 hrs by agar well diffusion method; settings: read-out: DIZ
# [10] = test system: Rhizoctonia solani; test: Antifungal activity against Rhizoctonia solani at 100 ug/ml after 72 hrs by agar well diffusion method; settings: read-out: DIZ
# [11] = test system: Rhizoctonia solani; test: Antifungal activity against Rhizoctonia solani at 50 ug/ml after 72 hrs by agar well diffusion method; settings: read-out: DIZ
# [12] = test system: Bacillus subtilis; test: Antibacterial activity against Bacillus subtilis at 500 ug/ml after 24 hrs by agar well diffusion method; settings: read-out: DIZ
# [13] = test system: Bacillus subtilis; test: Antibacterial activity against Bacillus subtilis at 300 ug/ml after 24 hrs by agar well diffusion method; settings: read-out: DIZ
# [14] = test system: Bacillus subtilis; test: Antibacterial activity against Bacillus subtilis at 200 ug/ml after 24 hrs by agar well diffusion method; settings: read-out: DIZ
# [15] = test system: Bacillus subtilis; test: Antibacterial activity against Bacillus subtilis at 100 ug/ml after 24 hrs by agar well diffusion method; settings: read-out: DIZ
# [16] = test system: Bacillus subtilis; test: Antibacterial activity against Bacillus subtilis at 50 ug/ml after 24 hrs by agar well diffusion method; settings: read-out: DIZ
# [17] = test system: Staphylococcus aureus; test: Antibacterial activity against Staphylococcus aureus ATCC 6538 at 500 ug/ml after 24 hrs by agar well diffusion method; settings: ATCC 6538, 24 h, read-out: DIZ
# [18] = test system: Staphylococcus aureus; test: Antibacterial activity against Staphylococcus aureus ATCC 6538 at 300 ug/ml after 24 hrs by agar well diffusion method; settings: ATCC 6538, 24 h, read-out: DIZ
# [19] = test system: Staphylococcus aureus; test: Antibacterial activity against Staphylococcus aureus ATCC 6538 at 200 ug/ml after 24 hrs by agar well diffusion method; settings: ATCC 6538, 24 h, read-out: DIZ
# [20] = test system: Staphylococcus aureus; test: Antibacterial activity against Staphylococcus aureus ATCC 6538 at 100 ug/ml after 24 hrs by agar well diffusion method; settings: ATCC 6538, 24 h, read-out: DIZ
# [21] = test system: Escherichia coli; test: Antibacterial activity against Escherichia coli ATCC 8739 at 300 ug/ml after 24 hrs by agar well diffusion method; settings: ATCC 8739, 24 h, read-out: DIZ
# [22] = test system: Escherichia coli; test: Antibacterial activity against Escherichia coli ATCC 8739 at 200 ug/ml after 24 hrs by agar well diffusion method; settings: ATCC 8739, 24 h, read-out: DIZ
# [23] = test system: Escherichia coli; test: Antibacterial activity against Escherichia coli ATCC 8739 at 100 ug/ml after 24 hrs by agar well diffusion method; settings: ATCC 8739, 24 h, read-out: DIZ
# [24] = test system: Escherichia coli; test: Antibacterial activity against Escherichia coli ATCC 8739 at 50 ug/ml after 24 hrs by agar well diffusion method; settings: ATCC 8739, 24 h, read-out: DIZ
# [25] = test system: Klebsiella pneumoniae; test: Antibacterial activity against Klebsiella pneumoniae at 500 ug/ml after 24 hrs by agar well diffusion method; settings: read-out: DIZ
# [26] = test system: Klebsiella pneumoniae; test: Antibacterial activity against Klebsiella pneumoniae at 300 ug/ml after 24 hrs by agar well diffusion method; settings: read-out: DIZ
# [27] = test system: Klebsiella pneumoniae; test: Antibacterial activity against Klebsiella pneumoniae at 200 ug/ml after 24 hrs by agar well diffusion method; settings: read-out: DIZ
# [28] = test system: Klebsiella pneumoniae; test: Antibacterial activity against Klebsiella pneumoniae at 50 ug/ml after 24 hrs by agar well diffusion method; settings: read-out: DIZ
# [29] = test system: Escherichia coli; test: Antibacterial activity against Escherichia coli ATCC 8739 at 500 ug/ml after 24 hrs by agar well diffusion method; settings: ATCC 8739, 24 h, read-out: DIZ
# [30] = test system: Klebsiella pneumoniae; test: Antibacterial activity against Klebsiella pneumoniae at 100 ug/ml after 24 hrs by agar well diffusion method; settings: read-out: DIZ
# [31] = test system: Staphylococcus aureus; test: Antibacterial activity against Staphylococcus aureus ATCC 6538 at 50 ug/ml after 24 hrs by agar well diffusion method; settings: ATCC 6538, 24 h, read-out: DIZ
# [32] = test system: Aspergillus flavus; test: Antifungal activity against Aspergillus flavus at 50 ug/ml after 72 hrs by agar well diffusion method; settings: read-out: DIZ
# [33] = test system: Aspergillus flavus; test: Antifungal activity against Aspergillus flavus at 100 ug/ml after 72 hrs by agar well diffusion method; settings: read-out: DIZ
# [34] = test system: Aspergillus flavus; test: Antifungal activity against Aspergillus flavus after 72 hrs by agar well diffusion method
# [35] = test system: Aspergillus niger; test: Antifungal activity against Aspergillus niger after 72 hrs by agar well diffusion method
# [36] = test system: Fusarium oxysporum; test: Antifungal activity against Fusarium oxysporum after 72 hrs by agar well diffusion method
# [37] = test system: Rhizoctonia solani; test: Antifungal activity against Rhizoctonia solani after 72 hrs by agar well diffusion method
# [38] = test system: Bacillus subtilis; test: Antibacterial activity against Bacillus subtilis after 24 hrs by agar well diffusion method
# [39] = test system: Staphylococcus aureus; test: Antibacterial activity against Staphylococcus aureus ATCC 6538 after 24 hrs by agar well diffusion method; settings: ATCC 6538, 24 h
# [40] = test system: Escherichia coli; test: Antibacterial activity against Escherichia coli ATCC 8739 after 24 hrs by agar well diffusion method; settings: ATCC 8739, 24 h
# [41] = test system: Klebsiella pneumoniae; test: Antibacterial activity against Klebsiella pneumoniae after 24 hrs by agar well diffusion method
# [42] = test system: Aspergillus flavus; test: Antifungal activity against Aspergillus flavus at 500 ug/ml after 72 hrs by agar well diffusion method; settings: read-out: DIZ
# [43] = test system: Aspergillus flavus; test: Antifungal activity against Aspergillus flavus at 300 ug/ml after 72 hrs by agar well diffusion method; settings: read-out: DIZ
# [44] = test system: Aspergillus flavus; test: Antifungal activity against Aspergillus flavus at 200 ug/ml after 72 hrs by agar well diffusion method; settings: read-out: DIZ
# [45] = test system: Aspergillus niger; test: Antifungal activity against Aspergillus niger at 500 ug/ml after 72 hrs by agar well diffusion method; settings: read-out: DIZ
# [46] = test system: Aspergillus niger; test: Antifungal activity against Aspergillus niger at 300 ug/ml after 72 hrs by agar well diffusion method; settings: read-out: DIZ
# [47] = test system: Aspergillus niger; test: Antifungal activity against Aspergillus niger at 200 ug/ml after 72 hrs by agar well diffusion method; settings: read-out: DIZ
# [48] = test system: Aspergillus niger; test: Antifungal activity against Aspergillus niger at 100 ug/ml after 72 hrs by agar well diffusion method; settings: read-out: DIZ
structure (smiles),measurement,setting,value
CCn1cc(C=C2C(=O)OC(C)(C)OC2=O)c2cc([N+](=O)[O-])ccc21,zone of inhibition at 50 µg/mL,[1],6 mm
same,zone of inhibition at 500 µg/mL,[2],29 mm
same,zone of inhibition at 300 µg/mL,[3],21 mm
same,zone of inhibition at 200 µg/mL,[4],16 mm
same,zone of inhibition at 100 µg/mL,[5],12 mm
same,zone of inhibition at 50 µg/mL,[6],7 mm
same,zone of inhibition at 500 µg/mL,[7],29 mm
same,zone of inhibition at 300 µg/mL,[8],21 mm
same,zone of inhibition at 200 µg/mL,[9],16 mm
same,zone of inhibition at 100 µg/mL,[10],12 mm
same,zone of inhibition at 50 µg/mL,[11],7 mm
same,zone of inhibition at 500 µg/mL,[12],22 mm
same,zone of inhibition at 300 µg/mL,[13],14 mm
same,zone of inhibition at 200 µg/mL,[14],11 mm
same,zone of inhibition at 100 µg/mL,[15],9 mm
same,zone of inhibition at 50 µg/mL,[16],4 mm
same,zone of inhibition at 500 µg/mL,[17],26 mm
same,zone of inhibition at 300 µg/mL,[18],16 mm
same,zone of inhibition at 200 µg/mL,[19],13 mm
same,zone of inhibition at 100 µg/mL,[20],10 mm
same,zone of inhibition at 300 µg/mL,[21],20 mm
same,zone of inhibition at 200 µg/mL,[22],15 mm
same,zone of inhibition at 100 µg/mL,[23],13 mm
same,zone of inhibition at 50 µg/mL,[24],8 mm
same,zone of inhibition at 500 µg/mL,[25],32 mm
same,zone of inhibition at 300 µg/mL,[26],23 mm
same,zone of inhibition at 200 µg/mL,[27],18 mm
same,zone of inhibition at 50 µg/mL,[28],9 mm
same,zone of inhibition at 500 µg/mL,[29],31 mm
same,zone of inhibition at 100 µg/mL,[30],14 mm
same,zone of inhibition at 50 µg/mL,[31],6 mm
same,zone of inhibition at 50 µg/mL,[32],4 mm
same,zone of inhibition at 100 µg/mL,[33],9 mm
same,MIC,[34],40 µg/mL
same,MIC,[35],40 µg/mL
same,MIC,[36],35 µg/mL
same,MIC,[37],35 µg/mL
same,MIC,[38],30 µg/mL
same,MIC,[39],25 µg/mL
same,MIC,[40],15 µg/mL
same,MIC,[41],15 µg/mL
same,zone of inhibition at 500 µg/mL,[42],23 mm
same,zone of inhibition at 300 µg/mL,[43],15 mm
same,zone of inhibition at 200 µg/mL,[44],12 mm
same,zone of inhibition at 500 µg/mL,[45],25 mm
same,zone of inhibition at 300 µg/mL,[46],18 mm
same,zone of inhibition at 200 µg/mL,[47],14 mm
same,zone of inhibition at 100 µg/mL,[48],10 mm
CC1(C)OC(=O)C(=Cc2c[nH]c3ccccc23)C(=O)O1,zone of inhibition at 50 µg/mL,[1],7 mm
same,zone of inhibition at 500 µg/mL,[2],31 mm
same,zone of inhibition at 300 µg/mL,[3],21 mm
same,zone of inhibition at 200 µg/mL,[4],17 mm
same,zone of inhibition at 100 µg/mL,[5],14 mm
same,zone of inhibition at 50 µg/mL,[6],10 mm
same,zone of inhibition at 500 µg/mL,[7],32 mm
same,zone of inhibition at 300 µg/mL,[8],24 mm
same,zone of inhibition at 200 µg/mL,[9],19 mm
same,zone of inhibition at 100 µg/mL,[10],15 mm
same,zone of inhibition at 50 µg/mL,[11],10 mm
same,zone of inhibition at 500 µg/mL,[12],25 mm
same,zone of inhibition at 300 µg/mL,[13],17 mm
same,zone of inhibition at 200 µg/mL,[14],14 mm
same,zone of inhibition at 100 µg/mL,[15],11 mm
same,zone of inhibition at 50 µg/mL,[16],6 mm
same,zone of inhibition at 500 µg/mL,[17],27 mm
same,zone of inhibition at 300 µg/mL,[18],20 mm
same,zone of inhibition at 200 µg/mL,[19],16 mm
same,zone of inhibition at 100 µg/mL,[20],12 mm
same,zone of inhibition at 300 µg/mL,[21],22 mm
same,zone of inhibition at 200 µg/mL,[22],18 mm
same,zone of inhibition at 100 µg/mL,[23],15 mm
same,zone of inhibition at 50 µg/mL,[24],10 mm
same,zone of inhibition at 500 µg/mL,[25],33 mm
same,zone of inhibition at 300 µg/mL,[26],25 mm
same,zone of inhibition at 200 µg/mL,[27],20 mm
same,zone of inhibition at 50 µg/mL,[28],11 mm
same,zone of inhibition at 500 µg/mL,[29],32 mm
same,zone of inhibition at 100 µg/mL,[30],16 mm
same,zone of inhibition at 50 µg/mL,[31],8 mm
same,zone of inhibition at 50 µg/mL,[32],5 mm
same,zone of inhibition at 100 µg/mL,[33],10 mm
same,MIC,[34],35 µg/mL
same,MIC,[35],30 µg/mL
same,MIC,[36],25 µg/mL
same,MIC,[37],25 µg/mL
same,MIC,[38],20 µg/mL
same,MIC,[39],20 µg/mL
same,MIC,[40],10 µg/mL
same,MIC,[41],10 µg/mL
same,zone of inhibition at 500 µg/mL,[42],24 mm
same,zone of inhibition at 300 µg/mL,[43],17 mm
same,zone of inhibition at 200 µg/mL,[44],13 mm
same,zone of inhibition at 500 µg/mL,[45],26 mm
same,zone of inhibition at 300 µg/mL,[46],19 mm
same,zone of inhibition at 200 µg/mL,[47],15 mm
same,zone of inhibition at 100 µg/mL,[48],11 mm
